For one test, the system named is HCC1806. Briefly: Cell viability assay (CellTiter-Glo). Format: cell-based, Human. Particulars: HCC1806, 7 days, CellTiter-Glo, read-out: IC50 (nM) in cell viability assay.
The target of the next test is PARG (Homo sapiens, UniProt Q86W56). In words: Biochemical assay (PARG, TFMU-ADPr substrate).
The mark [1] stands for this setting: 4 nM PARG, 66.2 uM TFMU-ADPr, 3 min at room temperature.

The record followed here is patent US20260258035A1, “FIVE-MEMBERED AND SIX-MEMBERED NITROGEN-CONTAINING COMPOUND, AND INTERMEDIATE, PREPARATION METHOD AND USE THEREOF” (HANGZHOU SYNRX THERAPEUTICS BIOMEDICAL TECHNOLOGY CO., LTD., priority 2022, published 2026).

Read-outs that look alike come from different tables or passages of the source. Some results are limits rather than exact numbers.

Chain of PARG (Q86W56 whole entry): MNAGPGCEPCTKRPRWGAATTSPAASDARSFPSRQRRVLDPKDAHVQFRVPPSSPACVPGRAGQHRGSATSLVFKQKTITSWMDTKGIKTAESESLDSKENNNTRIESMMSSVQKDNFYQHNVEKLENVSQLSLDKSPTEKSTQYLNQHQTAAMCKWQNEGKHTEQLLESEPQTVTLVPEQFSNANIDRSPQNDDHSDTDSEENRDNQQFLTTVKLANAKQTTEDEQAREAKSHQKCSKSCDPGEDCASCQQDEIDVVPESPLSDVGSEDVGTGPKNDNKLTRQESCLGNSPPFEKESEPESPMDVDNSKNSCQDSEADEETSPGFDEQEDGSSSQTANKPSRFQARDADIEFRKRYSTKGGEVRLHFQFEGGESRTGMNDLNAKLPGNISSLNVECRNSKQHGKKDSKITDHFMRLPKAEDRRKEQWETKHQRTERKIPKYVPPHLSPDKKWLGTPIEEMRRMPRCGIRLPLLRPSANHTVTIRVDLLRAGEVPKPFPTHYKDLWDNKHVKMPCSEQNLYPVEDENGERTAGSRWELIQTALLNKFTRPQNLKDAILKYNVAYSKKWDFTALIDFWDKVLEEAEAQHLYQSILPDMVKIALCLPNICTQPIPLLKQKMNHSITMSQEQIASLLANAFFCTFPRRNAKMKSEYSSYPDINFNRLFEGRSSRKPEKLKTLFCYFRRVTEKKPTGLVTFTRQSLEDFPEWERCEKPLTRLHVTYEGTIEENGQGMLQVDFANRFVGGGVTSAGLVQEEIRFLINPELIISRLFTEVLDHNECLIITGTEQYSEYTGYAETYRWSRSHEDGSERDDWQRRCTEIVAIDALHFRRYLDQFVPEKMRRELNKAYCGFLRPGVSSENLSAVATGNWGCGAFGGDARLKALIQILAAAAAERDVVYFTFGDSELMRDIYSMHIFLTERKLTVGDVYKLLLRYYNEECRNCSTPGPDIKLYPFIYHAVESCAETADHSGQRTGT

For `C[C@H]1CN(c2cc(S(=O)(=O)NC3(C)COC3)cn3c(-c4nnc(C(F)F)s4)nc(Cl)c23)C[C@H](CO)O1` [Example 397, 1-chloro-3-(5-(difluoromethyl)-1,3,4-thiadiazol-2-yl)-8-((2R,6S)-2-(hydroxymethyl)-6-methylmorpholino)-N-(3-methyloxetan-3-yl)imidazo[1,5-a]pyridine-6-sulfonamide], the half-inhibitory concentration (IC50) with HCC1806 (Homo sapiens, HCC1806, 168 h) amounted to 530 nM.

Turning to `N#CC1(NS(=O)(=O)c2cc(C3=CCN(S(=O)(=O)C4CC4)CC3)c3cnc(-c4nnc(C(F)(F)F)s4)n3c2)CC1` [Example 369, N-(1-cyanocyclopropyl)-8-(1-(cyclopropylsulfonyl)-1,2,3,6-tetrahydropyridin-4-yl)-3-(5-(trifluoromethyl)-1,3,4-thiadiazol-2-yl)imidazo[1,5-a]pyridine-6-sulfonamide], the IC50 with HCC1806 (Homo sapiens, HCC1806, 168 h) was determined as 505 nM; at PARG (PARG, TFMU-ADPr substrate) it was 1.91 nM.

On to `CC#CC(C)(O)C(=O)N1CCN(c2cc(S(=O)(=O)NC3(C#N)CC3)cn3c(-c4nnc(C(F)(F)F)s4)ncc23)CC1` (centres unmarked) [Example 256, N-(1-cyanocyclopropyl)-8-(4-(2-hydroxy-2-methylpent-3-ynoyl)piperazin-1-yl)-3-(5-(trifluoromethyl)-1,3,4-thiadiazol-2-yl)imidazo[1,5-a]pyridine-6-sulfonamide], for which the 50% inhibitory concentration (IC50) in the test on HCC1806 (Homo sapiens, HCC1806, 168 h) is 80 nM; at PARG (PARG, TFMU-ADPr substrate), 8.71 nM.

On to `CC(C)C(=O)N1CCN(c2cc(S(=O)(=O)NC3(C)CC3)cn3c(-c4nnc(C(F)(F)F)s4)nnc23)C[C@H]1C` [Example 119, (R)-8-(4-isobutyryl-3-methylpiperazin-1-yl)-N-(1-methylcyclopropyl)-3-(5-(trifluoromethyl)-1,3,4-thiadiazol-2-yl)-[1,2,4]triazolo[4,3-a]pyridine-6-sulfonamide], for which the IC50 in the test with HCC1806 is 431 nM; in the test with HCC1806 (Homo sapiens, HCC1806, 168 h), below 500 nM; on PARG (setting [1]) it was below 100 nM; against PARG (PARG, TFMU-ADPr substrate) it was 41.7 nM.

For the compound `COC1(C(=O)N2CCN(c3c(F)c(S(=O)(=O)NC4CC4)cn4c(-c5nnc(C(F)(F)F)s5)ncc34)CC2)CC1` [Example 195, N-cyclopropyl-7-fluoro-8-(4-(1-methoxycyclopropane-1-carbonyl)piperazin-1-yl)-3-(5-(trifluoromethyl)-1,3,4-thiadiazol-2-yl)imidazo[1,5-a]pyridine-6-sulfonamide], the IC50 in the test with HCC1806 (Homo sapiens, HCC1806, 168 h) worked out at 666 nM; at PARG (PARG, TFMU-ADPr substrate) it was 5.62 nM.

Regarding `C[C@@H]1CN(c2cc(S(=O)(=O)NC3(C)CC3)cn3c(-c4nnc(C(F)F)s4)ncc23)CCN1C(=O)C1CNC1` [Example 315, (R)-8-(4-(azetidine-3-carbonyl)-3-methylpiperazin-1-yl)-3-(5-(difluoromethyl)-1,3,4-thiadiazol-2-yl)-N-(1-methylcyclopropyl)imidazo[1,5-a]pyridine-6-sulfonamide], the half-inhibitory concentration (IC50) in the test with HCC1806 (Homo sapiens, HCC1806, 168 h) amounted to 5700 nM; against PARG (PARG, TFMU-ADPr substrate), 0.96 nM.

On to `CC1(NS(=O)(=O)c2cc(N3CCN(C(=O)c4ccncc4)CC3)c3cnc(-c4nnc(C(F)F)s4)n3c2)CC1` [Example 338, 3-(5-(difluoromethyl)-1,3,4-thiadiazol-2-yl)-8-(4-isonicotinoylpiperazin-1-yl)-N-(1-methylcyclopropyl)imidazo[1,5-a]pyridine-6-sulfonamide], for which the IC50 with HCC1806 (Homo sapiens, HCC1806, 168 h) was found to be 50 nM; at PARG (PARG, TFMU-ADPr substrate), 0.48 nM.

`Cn1nccc1C1C=C(c2cc(S(=O)(=O)NC3(C#N)CC3)cn3c(-c4nnc(C(F)F)s4)nnc23)CC1` (centres unmarked) [Example 367, N-(1-cyanocyclopropyl)-3-(5-(difluoromethyl)-1,3,4-thiadiazol-2-yl)-8-(3-(1-methyl-1H-pyrazol-5-yl)cyclopent-1-en-1-yl)-[1,2,4]triazolo[4,3-a]pyridine-6-sulfonamide]: the IC50 is 6780 nM with HCC1806; 5000 to 30000 nM in the test with HCC1806 (Homo sapiens, HCC1806, 168 h); below 100 nM against PARG (setting [1]); 32.8 nM on PARG (PARG, TFMU-ADPr substrate).

As for `CN(C)CCN(C)C(=O)N1CCN(c2cc(S(=O)(=O)NC3(C)COC3)cn3c(-c4nnc(C(F)F)s4)nc(Cl)c23)CC1` [Example 188, 4-(1-chloro-3-(5-(difluoromethyl)-1,3,4-thiadiazol-2-yl)-6-(N-(3-methyloxetan-3-yl)sulfamoyl)imidazo[1,5-a]pyridin-8-yl)-N-(2-(dimethylamino)ethyl)-N-methylpiperazine-1-carboxamide], the IC50 with HCC1806 (Homo sapiens, HCC1806, 168 h) was determined as 85 nM; on PARG (PARG, TFMU-ADPr substrate), 0.71 nM.

Regarding `CC1(NS(=O)(=O)c2cc(N3CCN(C(=O)C4(C)CCN4)CC3)c3cnc(-c4nnc(C(F)(F)F)s4)n3c2)CC1` (centres unmarked) [Example 321, 8-(4-(2-methylazetidine-2-carbonyl)piperazin-1-yl)-N-(1-methylcyclopropyl)-3-(5-(trifluoromethyl)-1,3,4-thiadiazol-2-yl)imidazo[1,5-a]pyridine-6-sulfonamide], the IC50 in the test on HCC1806 (Homo sapiens, HCC1806, 168 h) amounted to 175 nM; against PARG (PARG, TFMU-ADPr substrate), 2.93 nM.

Turning to `N#CC1(NS(=O)(=O)c2cc(N3CC[C@@H](O)C3)c3cnc(-c4nnc(C(F)(F)F)s4)n3c2)CC1` [Example 230, (R)-N-(1-cyanocyclopropyl)-8-(3-hydroxypyrrolidin-1-yl)-3-(5-(trifluoromethyl)-1,3,4-thiadiazol-2-yl)imidazo[1,5-a]pyridine-6-sulfonamide], the 50% inhibitory concentration (IC50) came out at 8000 nM in the test with HCC1806 (Homo sapiens, HCC1806, 168 h) and 120 nM on PARG (PARG, TFMU-ADPr substrate).

Turning to `CN(C)CC1(O)CCN(c2cc(S(=O)(=O)NC3(C)CC3)cn3c(-c4nnc(C(F)F)s4)ncc23)CC1` [Example 337, 3-(5-(difluoromethyl)-1,3,4-thiadiazol-2-yl)-8-(4-((dimethylamino)methyl)-4-hydroxypiperidin-1-yl)-N-(1-methylcyclopropyl)imidazo[1,5-a]pyridine-6-sulfonamide], the half-maximal inhibitory concentration (IC50) in the test on HCC1806 (Homo sapiens, HCC1806, 168 h) was found to be 245 nM; against PARG (PARG, TFMU-ADPr substrate), 4.82 nM.

Regarding `CC1(NS(=O)(=O)c2cc(N3CCN(C(=O)C(O)C(F)(F)F)CC3)c3cnc(-c4nnc(C(F)(F)F)s4)n3c2)CC1` (centres unmarked) [Example 282, N-(1-methylcyclopropyl)-8-(4-(3,3,3-trifluoro-2-hydroxypropanoyl)piperazin-1-yl)-3-(5-(trifluoromethyl)-1,3,4-thiadiazol-2-yl)imidazo[1,5-a]pyridine-6-sulfonamide], the half-inhibitory concentration (IC50) worked out at 84.3 nM with HCC1806 (Homo sapiens, HCC1806, 168 h) and 20 nM at PARG (PARG, TFMU-ADPr substrate).

`Cc1nc(-c2nnc(C(F)F)s2)n2cc(S(=O)(=O)NC3(C)COC3)cc(N3CCC4(CC3)COC4)c12` [Example 169, 3-(5-(difluoromethyl)-1,3,4-thiadiazol-2-yl)-1-methyl-N-(3-methyloxetan-3-yl)-8-(2-oxa-7-azaspiro[3.5]nonan-7-yl)imidazo[1,5-a]pyridine-6-sulfonamide]: the IC50 in the test with HCC1806 (Homo sapiens, HCC1806, 168 h) amounted to 27 nM; against PARG (PARG, TFMU-ADPr substrate), 1.82 nM.

Turning to `CC(C)C(=O)N1CCN(c2cc(S(=O)(=O)NC3(C)COC3)cn3c(-c4nnc(C(F)(F)F)s4)ncc23)C[C@H]1C` [Example 174, (R)-8-(4-isobutyryl-3-methylpiperazin-1-yl)-N-(3-methyloxetan-3-yl)-3-(5-(trifluoromethyl)-1,3,4-thiadiazol-2-yl)imidazo[1,5-a]pyridine-6-sulfonamide], the IC50 in the test with HCC1806 (Homo sapiens, HCC1806, 168 h) stood at 856 nM; against PARG (PARG, TFMU-ADPr substrate), 5.01 nM.

Take `CC(C)C(=O)N1CCN(c2cc(S(=O)(=O)NC3(C#N)CC3)cc3c(-c4nnc(C(F)F)s4)nc(Cl)n23)CC1` [Example 98, 3-chloro-N-(1-cyanocyclopropyl)-1-(5-(difluoromethyl)-1,3,4-thiadiazol-2-yl)-5-(4-isobutyrylpiperazin-1-yl)imidazo[1,5-a]pyridine-7-sulfonamide]: in the test on HCC1806 (Homo sapiens, HCC1806, 168 h), the IC50 is above 30000 nM.

As for `N#CC1(NS(=O)(=O)c2cc(N3CCCC(N)C3)c3cnc(-c4nnc(C(F)(F)F)s4)n3c2)CC1` (centres unmarked) [Example 262, 8-(3-aminopiperidin-1-yl)-N-(1-cyanocyclopropyl)-3-(5-(trifluoromethyl)-1,3,4-thiadiazol-2-yl)imidazo[1,5-a]pyridine-6-sulfonamide], the IC50 in the test with HCC1806 (Homo sapiens, HCC1806, 168 h) came to 2000 nM.

With `N#CC1(NS(=O)(=O)c2cc(C#CC3CCOC3)c3cnc(-c4nnc(C(F)F)s4)n3c2)CC1` (centres unmarked) [Example 375, N-(1-cyanocyclopropyl)-3-(5-(difluoromethyl)-1,3,4-thiadiazol-2-yl)-8-((tetrahydrofuran-3-yl)ethynyl)imidazo[1,5-a]pyridine-6-sulfonamide], the half-maximal inhibitory concentration (IC50) in the test on HCC1806 (Homo sapiens, HCC1806, 168 h) turned out to be 855 nM.

With `N#CC1(NS(=O)(=O)c2cc(N3CCC(N)CC3)c3cnc(-c4nnc(C(F)(F)F)s4)n3c2)CC1` [Example 263, 8-(4-aminopiperidin-1-yl)-N-(1-cyanocyclopropyl)-3-(5-(trifluoromethyl)-1,3,4-thiadiazol-2-yl)imidazo[1,5-a]pyridine-6-sulfonamide], the half-inhibitory concentration (IC50) in the test on HCC1806 (Homo sapiens, HCC1806, 168 h) is 4500 nM.

With `O=S(=O)(NC1CC1)c1cc(N2Cc3c[nH]nc3C2)c2cnc(-c3nnc(C(F)(F)F)s3)n2c1` [Example 247, N-cyclopropyl-8-(2,6-dihydropyrrolo[3,4-c]pyrazol-5(4H)-yl)-3-(5-(trifluoromethyl)-1,3,4-thiadiazol-2-yl)imidazo[1,5-a]pyridine-6-sulfonamide], the IC50 in the test on HCC1806 (Homo sapiens, HCC1806, 168 h) turned out to be 27200 nM.

`N#CC1(NS(=O)(=O)c2cc(C#Cc3cncs3)c3cnc(-c4nnc(C(F)F)s4)n3c2)CC1` [Example 374, N-(1-cyanocyclopropyl)-3-(5-(difluoromethyl)-1,3,4-thiadiazol-2-yl)-8-(thiazol-5-ylethynyl)imidazo[1,5-a]pyridine-6-sulfonamide]: the 50% inhibitory concentration (IC50) with HCC1806 (Homo sapiens, HCC1806, 168 h) turned out to be 2320 nM.

In the case of `N#CC1(NS(=O)(=O)c2cc(C#Cc3c[nH]cn3)c3cnc(-c4nnc(C(F)F)s4)n3c2)CC1` [Example 376, 8-((1H-imidazol-4-yl)ethynyl)-N-(1-cyanocyclopropyl)-3-(5-(difluoromethyl)-1,3,4-thiadiazol-2-yl)imidazo[1,5-a]pyridine-6-sulfonamide], the IC50 with HCC1806 (Homo sapiens, HCC1806, 168 h) stood at 30000 nM.

On to `CC(C)C(=O)NC1CCCN(c2cc(S(=O)(=O)NC3(C#N)CC3)cn3c(-c4nnc(C(F)(F)F)s4)ncc23)C1` (centres unmarked) [Example 267, N-(1-(6-(N-(1-cyanocyclopropyl)sulfamoyl)-3-(5-(trifluoromethyl)-1,3,4-thiadiazol-2-yl)imidazo[1,5-a]pyridin-8-yl)piperidin-3-yl)isobutyramide], for which, in the test with HCC1806 (Homo sapiens, HCC1806, 168 h), the concentration for half-maximal inhibition (IC50) was 1500 nM.
